Measurements reported in the supplement of paper PMC10307832.

Experiments:
Experiment in all cases: relative viability (nuclei count vs DMSO), 5 days (fraction); higher = more cells survive
[1] = tested on: PC-3 [JPC-3]
How it was run: (§1)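 Lung cancer cell lines in 1536-well plates were dosed by pin tool the day after seeding, either with one drug alone or with a fixed anchor-drug dose plus five library-drug doses (not always all listed) in √10 steps. After 5 days, cells were fixed and their nuclei stained in one step (final 0.05% Triton X-100, 1% formaldehyde, 1 ug/ml Hoechst), then counted on 4× images. Relative viability is the nuclei count in treated wells divided by that in vehicle wells. Values are medians of duplicate plates.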

[2] = tested on: A-427
How it was run: as §1

[3] = tested on: NCI-H596
How it was run: as §1

[4] = tested on: NCI-H1993
How it was run: as §1

[5] = tested on: HOP-62
How it was run: as §1

[6] = tested on: EMC-BAC-2
How it was run: as §1

[7] = tested on: SW 1573
How it was run: as §1

[8] = tested on: NCI-H3122
How it was run: as §1

[9] = tested on: NCI-H727
How it was run: as §1

[10] = tested on: ABC-1
How it was run: as §1

[11] = tested on: NCI-H2228
How it was run: as §1

[12] = tested on: NCI-H2009
How it was run: as §1

[13] = tested on: HARA
How it was run: as §1

[14] = tested on: NCI-H1792
How it was run: as §1

[15] = tested on: NCI-H322M
How it was run: as §1

[16] = tested on: LXF-289
How it was run: as §1

Molecule COc1nc(C)cnc1NS(=O)(=O)c1cccnc1-c1ccc(-c2nnco2)cc1 [Zibotentan] + CC(C)C[C@H](NC(=O)[C@H](Cc1ccccc1)NC(=O)c1cnccn1)B(O)O [Bortezomib] (partner 0.002 µM) has a relative viability ([1]; first compound 0.08 µM) of 0.906, a relative viability ([1]; first compound 0.253 µM) of 0.838 and a relative viability ([1]; first compound 0.8 µM) of 0.839. For the same molecule, the relative viability ([1]; first compound 2.53 µM) was 0.807, the relative viability ([2]; first compound 0.08 µM) was 1.05 and the relative viability ([2]; first compound 0.253 µM) was 1.06. For the same molecule, the relative viability ([2]; first compound 0.8 µM) was 1.02, the relative viability ([2]; first compound 2.53 µM) was 1.01 and the relative viability ([3]; first compound 0.08 µM) was 0.966. It also gave a relative viability ([3]; first compound 0.253 µM) of 0.935, a relative viability ([3]; first compound 0.8 µM) of 1.06 and a relative viability ([3]; first compound 2.53 µM) of 1.31. For the same molecule, the relative viability ([4]; first compound 0.253 µM) was 1.05, the relative viability ([4]; first compound 0.8 µM) was 0.994 and the relative viability ([4]; first compound 2.53 µM) was 1.8. The relative viability ([5]; first compound 0.08 µM) was 0.732, the relative viability ([5]; first compound 0.253 µM) was 0.625 and the relative viability ([5]; first compound 0.8 µM) was 1.08. It also gave a relative viability ([5]; first compound 2.53 µM) of 0.724, a relative viability ([6]; first compound 0.08 µM) of 1.18 and a relative viability ([6]; first compound 0.253 µM) of 1.04. It also gave a relative viability ([6]; first compound 0.8 µM) of 1.07, a relative viability ([6]; first compound 2.53 µM) of 1.09 and a relative viability ([7]; first compound 0.08 µM) of 1. The relative viability ([7]; first compound 0.253 µM) was 0.847, the relative viability ([7]; first compound 0.8 µM) was 1.05 and the relative viability ([7]; first compound 2.53 µM) was 1.28. For the same molecule, the relative viability ([8]; first compound 0.08 µM) was 1.02, the relative viability ([8]; first compound 0.253 µM) was 0.979 and the relative viability ([8]; first compound 0.8 µM) was 0.992. For the same molecule, the relative viability ([8]; first compound 2.53 µM) was 1.03, the relative viability ([9]; first compound 0.08 µM) was 0.745 and the relative viability ([9]; first compound 0.253 µM) was 0.768. The relative viability ([9]; first compound 0.8 µM) was 0.966, the relative viability ([9]; first compound 2.53 µM) was 0.805 and the relative viability ([10]; first compound 0.08 µM) was 0.348. For the same molecule, the relative viability ([10]; first compound 0.253 µM) was 0.289, the relative viability ([10]; first compound 0.8 µM) was 0.374 and the relative viability ([10]; first compound 2.53 µM) was 0.316. For the same molecule, the relative viability ([11]; first compound 0.08 µM) was 0.801, the relative viability ([11]; first compound 0.253 µM) was 0.821 and the relative viability ([11]; first compound 0.8 µM) was 0.97. The relative viability ([11]; first compound 2.53 µM) was 1.07, the relative viability ([12]; first compound 0.08 µM) was 1.04 and the relative viability ([12]; first compound 0.253 µM) was 0.973. It also gave a relative viability ([12]; first compound 0.8 µM) of 1.11, a relative viability ([12]; first compound 2.53 µM) of 1.12 and a relative viability ([13]; first compound 0.08 µM) of 1.18. For the same molecule, the relative viability ([13]; first compound 0.253 µM) was 1.13, the relative viability ([13]; first compound 0.8 µM) was 1.15 and the relative viability ([13]; first compound 2.53 µM) was 1.19. For the same molecule, the relative viability ([14]; first compound 0.08 µM) was 0.912, the relative viability ([14]; first compound 0.253 µM) was 0.833 and the relative viability ([14]; first compound 0.8 µM) was 0.921. For the same molecule, the relative viability ([14]; first compound 2.53 µM) was 0.935, the relative viability ([15]; first compound 0.08 µM) was 1.05 and the relative viability ([15]; first compound 0.253 µM) was 1.22. It also gave a relative viability ([15]; first compound 0.8 µM) of 1.18, a relative viability ([15]; first compound 2.53 µM) of 1.34 and a relative viability ([16]; first compound 0.08 µM) of 1.05. For the same molecule, the relative viability ([16]; first compound 0.253 µM) was 0.993, the relative viability ([16]; first compound 0.8 µM) was 1.05 and the relative viability ([16]; first compound 2.53 µM) was 0.989.
